In US11059795B2, “Androgen receptor modulators and methods for their use” (ESSA Pharma, Inc., priority 2018, dated 2021):

Experiments:
[1] = Hepatocyte stability assay, mouse hepatocytes; assay type: in vitro ADME; conditions: 1 μM compound, 0.5 million cells/mL, 37° C.; for hepatocyte CLint at 1 μM: mouse, cryopreserved hepatocytes, read-out: MH +/− NADPH: Clint (μL/min/million cells)
Source text: The […] of in vitro intrinsic clearance (Clint) for drug candidates in the early discovery stage is common practice in the pharmaceutical industry. The Clint values of drug candidates can help to confirm whether metabolism is the main clearance pathway when it is compared with the total body clearance in vivo. Hepatocytes are among the routinely used in vitro systems for measuring clearance. Hepatocytes have been reported to retain most of the phase I and phase II metabolic activities, and therefore, it is a useful tool to estimate the intrinsic clearance for potential drug candidates.
Metabolic stability of testing compound were be evaluated using human and mouse hepatocytes and can also be use rat, mouse, or other animal hepatocytes to predict intrinsic clearance. Cryopreserved hepatocytes were removed from the liquid nitrogen tank and thawed in a 37° C. water bath. As soon as the cells pulled away from the vial wall, they were decanted into 48 ml of warm HT medium. Cells were centrifuged for four minutes at 420 rpm (50 g). After removing the supernatant, pellet was re-suspended in warm DMEM medium. Cell density was counted by a hemacytometer.
The assay was carried out in 96-well microtiter plates. Compounds were incubated for 0, 60, 120, and 180 minutes at 37° C. with hepatocytes. Reaction mixtures (50 μL) contained a final concentration of 1 μM test compound, 0.5 million cells/mL hepatocytes in the DMEM medium. At each of the time points (for example, 0, 1, 2, and 3 hours), 200 μL of quench solution (100% acetonitrile with 0.1% formic acid) with internal standard was transferred to each well. Midazolam was included as a positive control to verify assay performance. Plates were sealed and centrifuged at 4° C. for 15 minutes at 4000 rpm. The supernatant is transferred to fresh plates for LC/MS/MS analysis.
Summarized conditions (customizable): [Compound]=[…], Positive control: midazolam and/or naloxone, [Hepatocyte]=0.5 million cells/Ml, time=0, 60, 120, and 180 min, t=37° C.
(§1) All samples were analyzed on LC/MS/MS using an AB Sciex API 4000 instrument, coupled to a Shimadzu LC-20AD LC Pump system. Analytical samples were separated using a Waters Atlantis T3 dC18 reverse phase HPLC column (20 mm×2.1 mm) at a flow rate of 0.5 mL/min. The mobile phase consisted of 0.1% formic acid in water (solvent A) and 0.1% formic acid in 100% acetonitrile (solvent B).
The extent of metabolism was calculated as the disappearance of the test compound, compared to the 0-min control reaction incubations. Initial rates were calculated for the compound concentration and used to determine t½ values and subsequently, the intrinsic clearance, Clint. Clint=(0.693)(1/t½(min))(mL incubation/million cells)

androgen receptor (AR) = biological target: T1, androgen receptor (AR) (Homo sapiens, UniProt P10275, T878A); assay: Androgen-induced PSA (6.1 kb)-luciferase reporter assay in LNCaP cells; assay type: cell-based; conditions: LNCaP cells transfected with PSA (6.1 kb)-luciferase reporter, R1881 1 nM, 24 h; read-out: PSA-Luc IC50 Range
T1 construct: LNCaP cells were transiently transfected with the PSA (6.1 kb)-luciferase reporter for 24 h; endogenous in cells; host or cells: LNCaP
T1 sequence (P10275 1-920 T878A): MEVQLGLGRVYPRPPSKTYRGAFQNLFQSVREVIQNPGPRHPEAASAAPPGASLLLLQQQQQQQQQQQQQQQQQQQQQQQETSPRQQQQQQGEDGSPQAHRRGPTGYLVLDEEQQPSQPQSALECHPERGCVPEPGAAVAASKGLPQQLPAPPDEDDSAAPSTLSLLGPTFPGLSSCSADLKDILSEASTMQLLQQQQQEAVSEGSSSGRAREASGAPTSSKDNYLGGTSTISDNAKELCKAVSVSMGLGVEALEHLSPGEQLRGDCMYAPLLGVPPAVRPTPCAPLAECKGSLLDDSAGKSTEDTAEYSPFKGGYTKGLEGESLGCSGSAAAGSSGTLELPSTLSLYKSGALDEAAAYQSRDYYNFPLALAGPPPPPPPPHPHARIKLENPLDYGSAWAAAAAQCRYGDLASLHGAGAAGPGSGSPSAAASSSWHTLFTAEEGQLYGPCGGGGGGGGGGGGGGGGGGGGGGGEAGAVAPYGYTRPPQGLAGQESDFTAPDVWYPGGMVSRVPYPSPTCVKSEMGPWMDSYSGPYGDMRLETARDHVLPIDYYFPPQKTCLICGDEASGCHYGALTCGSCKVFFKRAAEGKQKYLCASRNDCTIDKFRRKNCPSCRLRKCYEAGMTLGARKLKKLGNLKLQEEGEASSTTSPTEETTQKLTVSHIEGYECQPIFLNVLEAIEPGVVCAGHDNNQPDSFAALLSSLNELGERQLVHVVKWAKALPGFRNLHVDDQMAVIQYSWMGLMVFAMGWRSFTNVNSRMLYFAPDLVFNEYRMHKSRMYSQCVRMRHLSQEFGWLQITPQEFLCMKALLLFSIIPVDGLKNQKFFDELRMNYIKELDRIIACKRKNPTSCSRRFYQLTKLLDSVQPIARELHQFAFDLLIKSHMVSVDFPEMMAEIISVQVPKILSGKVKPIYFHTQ
Procedure, shortened: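 LNCaP cells carrying a PSA (6.1 kb) promoter-luciferase reporter with AREs; androgen-induced firefly luciferase read from lysates for 10 s. RLU normalized to protein content; IC50 calculated from the normalized data.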

[2] = Microsomal stability assay, mouse liver microsomes; assay type: in vitro ADME; conditions: 1 μM compound, 0.5 mg/mL protein, 37° C.; for microsomal CLint at 1 μM: mouse, liver microsomes, pH 7.4, mouse liver microsomes, read-out: MLM +30/− NADPH: Clint (μL/min/mg protein)
Protocol: Microsomal stability assay is a widely used in vitro model to characterize the metabolic conversion by phase I enzymes, such as cytochrome P450 (CYP) enzymes. Since metabolism is known to be highly variable in different species, microsomal stability assay is commonly run in multiple species. Metabolic stability of testing compound can be evaluated using human, rat, mouse, or other animal liver or intestine microsomes to predict intrinsic clearance.
The assay was carried out in 96-well microtiter plates at 37° C. Reaction mixtures (25 μL) contained a final concentration of 1 μM test compound, 0.5 mg/mL liver microsomes protein, and 1 mM NADPH and/or 1 mM UDPGA (with alamethicin) in 100 mM potassium phosphate, pH 7.4 buffer with 3 mM MgCl2. The incubation was done with N=1, but duplicate incubation at each time point can be prepared if necessary. At each of the time points (for example, 0, 15, 30, and 60 minutes), 150 μL of quench solution (100% acetonitrile with 0.1% formic acid) with internal standard was transferred to each well. Besides the zero minute controls, mixtures containing the same components except the NADPH can also be prepared as the negative control. Verapamil was included as a positive control to verify assay performance. Plates were sealed, vortexed, and centrifuged at 4° C. for 15 minutes at 4000 rpm. The supernatant is transferred to fresh plates for LC/MS/MS analysis.
Summarized conditions: [Compound]=[…], [LM]=0.5 mg/mL, [NADPH]=1 mM and/or [UDPGA]=1 mM, Buffer=100 mM Potassium Phosphate, pH 7.4 with 3 mM MgCl2, Time=0, 15, 30, and 60 min, and Temperature=37° C.
as §1
The extent of metabolism is calculated as the disappearance of the test compound, compared to the 0-min time incubation. Initial rates are calculated for the compound concentration and used to determine half-life (t½) values and subsequently, the intrinsic clearance (Clint). Clint=(0.693)(1/t½ (min))(g of liver/kg of body weight)(mL incubation/mg of microsomal protein)(45 mg of microsomal protein/g of liver weight)

[3] = Microsomal stability assay, human liver microsomes; assay type: in vitro ADME; conditions: pH 7.4, 1 μM compound, 0.5 mg/mL protein, 37° C., read-out: HLM +/− NADPH: Clint (μL/min/mg protein)
Procedure, shortened: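 Compound at 1 μM was incubated at 37° C with 0.5 mg/mL liver microsomes and 1 mM NADPH and/or 1 mM UDPGA (with alamethicin) in 100 mM potassium phosphate pH 7.4, 3 mM MgCl2. Samples were taken at 0, 15, 30 and 60 min and measured by LC/MS/MS. t½ came from compound loss relative to 0 min, and Clint was scaled with 45 mg microsomal protein/g liver.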

SMILES | hepatocyte CLint at 1 μM [1] | IC50 (androgen receptor (AR)) | microsomal CLint at 1 μM [2] | microsomal CLint at 1 μM [3] | MH +/− NADPH: Clint (μL/min/million cells) [1] | MLM +30/− NADPH: Clint (μL/min/mg protein) ([2]; mouse liver microsomes)
CC(Oc1ccc(C(C)(C)c2cc(Cl)c(OCCCl)c(C#N)c2)cc1)c1coc(S(C)(=O)=O)n1 (stereo not drawn) [Compound A85] | ≥ 18 µL/min/1e6 cells | < 500 nM | ≥ 48 µL/min/mg | < 12 µL/min/mg | – | –
Cc1cc(C(C)(C)c2ccc(OCc3csc(S(C)(=O)=O)n3)cc2)cc(C#N)c1OCCCl [Compound A86] | ≥ 18 µL/min/1e6 cells | < 500 nM | 12 to 48 µL/min/mg | 12 to 48 µL/min/mg | – | –
CC(Oc1ccc(C(C)(C)c2cc(Cl)c(OCCCl)c(C#N)c2)cc1)c1ocnc1S(C)(=O)=O (stereo not drawn) [Compound A87] | ≥ 18 µL/min/1e6 cells | 500 to 2000 nM | 12 to 48 µL/min/mg | < 12 µL/min/mg | – | –
Cc1cc(C(C)(C)c2ccc(OC(C)c3ocnc3S(C)(=O)=O)cc2)cc(C#N)c1OCCCl (stereo not drawn) [Compound A88] | ≥ 18 µL/min/1e6 cells | 500 to 2000 nM | ≥ 48 µL/min/mg | ≥ 48 µL/min/mg | – | –
Cc1cc(C(C)(C)c2ccc(OC(C)c3ncc(S(C)(=O)=O)o3)cc2)cc(C#N)c1OCCCl (stereo not drawn) [Compound A89] | ≥ 18 µL/min/1e6 cells | 500 to 2000 nM | ≥ 48 µL/min/mg | 12 to 48 µL/min/mg | – | –
CC(Oc1ccc(C(C)(C)c2cc(Cl)c(OCCCl)c(C#N)c2)cc1)c1ncc(S(C)(=O)=O)o1 (stereo not drawn) [Compound A90] | ≥ 18 µL/min/1e6 cells | 500 to 2000 nM | ≥ 48 µL/min/mg | < 12 µL/min/mg | – | –
CC(Oc1ccc(C(C)(C)c2cc(Cl)c(OCCCl)c(C#N)c2)cc1)c1coc(NS(C)(=O)=O)n1 (stereo not drawn) [Compound A91] | 4 to 18 µL/min/1e6 cells | 500 to 2000 nM | < 12 µL/min/mg | < 12 µL/min/mg | – | –
CC(Oc1ccc(C(C)(C)c2cc(Cl)c(OCCCl)c(C#N)c2)cc1)c1cnc(NS(C)(=O)=O)o1 (stereo not drawn) [Compound A92] | ≥ 18 µL/min/1e6 cells | < 500 nM | 12 to 48 µL/min/mg | 12 to 48 µL/min/mg | – | –
CC(C)(c1ccc(OCc2ncc(S(C)(=O)=O)[nH]2)cc1)c1cc(Cl)c(OCCCl)c(C#N)c1 [Compound A94] | 4 to 18 µL/min/1e6 cells | 500 to 2000 nM | 12 to 48 µL/min/mg | 12 to 48 µL/min/mg | – | –
CC(Oc1ccc(C(C)(O)c2cc(Cl)c(OCCCl)c(C#N)c2)cc1)c1ocnc1S(C)(=O)=O (stereo not drawn) [Compound A95] | ≥ 18 µL/min/1e6 cells | > 2000 nM | ≥ 48 µL/min/mg | 12 to 48 µL/min/mg | – | –
CC(C)(c1ccc(NC(=O)c2coc(S(C)(=O)=O)n2)cc1)c1cc(Cl)c(OCCCl)c(C#N)c1 [Compound A96] | ≥ 18 µL/min/1e6 cells | > 2000 nM | ≥ 48 µL/min/mg | ≥ 48 µL/min/mg | – | –
CC(C)(c1ccc(OCc2ocnc2S(C)(=O)=O)cc1)c1cc(Cl)c(OCC(Cl)CO)c(Cl)c1 (stereo not drawn) [Compound A97] | ≥ 18 µL/min/1e6 cells | < 500 nM | 12 to 48 µL/min/mg | 12 to 48 µL/min/mg | – | –
CC(Oc1ccc(C(C)(C)c2cc(Cl)c(OCCCl)c(C#N)c2)cc1)c1ccnc(NS(C)(=O)=O)n1 (stereo not drawn) [Compound A98] | < 4 µL/min/1e6 cells | 500 to 2000 nM | < 12 µL/min/mg | < 12 µL/min/mg | – | –
Cc1nc(COc2ccc(C(C)(C)c3cc(Cl)c(OCCCl)c(C#N)c3)cc2)cc(NS(C)(=O)=O)n1 [Compound A99] | 4 to 18 µL/min/1e6 cells | 500 to 2000 nM | 12 to 48 µL/min/mg | < 12 µL/min/mg | – | –
CC(=O)Nc1nccc(COc2ccc(C(C)(C)c3cc(C)c(OCCCl)c(C#N)c3)cc2)n1 [Compound A100] | ≥ 18 µL/min/1e6 cells | < 500 nM | ≥ 48 µL/min/mg | ≥ 48 µL/min/mg | – | –
CC(C)(c1ccc(OCc2nnccc2NS(C)(=O)=O)cc1)c1cc(Cl)c(OCCCl)c(C#N)c1 [Compound A101] | 4 to 18 µL/min/1e6 cells | 500 to 2000 nM | 12 to 48 µL/min/mg | ≥ 48 µL/min/mg | – | –
CC(C)(c1ccc(OCc2ccnnc2NS(C)(=O)=O)cc1)c1cc(Cl)c(OCCCl)c(C#N)c1 [Compound A102] | < 4 µL/min/1e6 cells | < 500 nM | < 12 µL/min/mg | 12 to 48 µL/min/mg | – | –
CC(C)(c1ccc(OCc2nccnc2NS(C)(=O)=O)cc1)c1cc(Cl)c(OCCCl)c(C#N)c1 [Compound A103] | – | < 500 nM | – | 12 to 48 µL/min/mg | *** (*** represent Cl < 4 cells μL/min/million cells) | ** (** represents Cl in the range of 12-48 μL/min/mg protein)
